Key:
[1] = test system: Ornithine decarboxylase (ODC); assay: ODC inhibitory activity in vivo (ODC activity in ventral prostate and thymus of rats); parameters: species or system rats (Sprague-Dawley)
Method: Male rats of the Sprague-Dawley strain (200-220 g body weight), purchased from Charles River, are given food and water ad libitum under a constant 12 hr light--12 hr dark lighting schedule. Drugs are injected intraperitoneally (dissolved in 0.9% saline) or are given by gavage (dissolved in water). Rats given saline or water serve as control. Five to six hours after drug administration, the animals are killed by decapitation and the ventral prostrate and thymus are excised rapidly and immediately processed. The tissues are homogenized with three volumes of 30 mM sodium phosphate buffer (pH 7.1) containing 0.1 mM EDTA, 0.25 M sucrose, 0.1 mM pyridoxal phosphate and 5 mM dithiothreitol. Ornithine decarboxylase activities are determined on a 1000 g supernatant of prostate homogenate and on a whole thymus homogenate, essentially as described by Ono et al. (Biochem. Biophys. Acta, 284, 285 (1972)).
When tested according to the above-described procedure, representative compounds of Formula I gave the results shown in Table II below and in which the following abbreviations are used: […]

[2] = biological target: T1, Ornithine decarboxylase (ODC) (Rattus norvegicus, UniProt P09057); assay: Inhibition of ornithine decarboxylase (ODC) in vitro (partially purified ODC from rat liver, 14CO2 assay, Kitz and Wilson); format: biochemical, rats; parameters: Half-life (t1/2): dose or concentration left out as unconfirmed; details: for τ50 (half-life, at infinite concentration of inhibitor) / Ki: 37°, Kitz and Wilson; for Ki: time-dependent inhibition, read-out: KI (apparent dissociation constant)
T1 construct: prepared from the livers of rats which have been injected with thioacetamide; from tissue; host or cells: rat liver (thioacetamide-injected rats), purified about ten fold by acid treatment at pH 4.6
T1 sequence (P09057 1-461): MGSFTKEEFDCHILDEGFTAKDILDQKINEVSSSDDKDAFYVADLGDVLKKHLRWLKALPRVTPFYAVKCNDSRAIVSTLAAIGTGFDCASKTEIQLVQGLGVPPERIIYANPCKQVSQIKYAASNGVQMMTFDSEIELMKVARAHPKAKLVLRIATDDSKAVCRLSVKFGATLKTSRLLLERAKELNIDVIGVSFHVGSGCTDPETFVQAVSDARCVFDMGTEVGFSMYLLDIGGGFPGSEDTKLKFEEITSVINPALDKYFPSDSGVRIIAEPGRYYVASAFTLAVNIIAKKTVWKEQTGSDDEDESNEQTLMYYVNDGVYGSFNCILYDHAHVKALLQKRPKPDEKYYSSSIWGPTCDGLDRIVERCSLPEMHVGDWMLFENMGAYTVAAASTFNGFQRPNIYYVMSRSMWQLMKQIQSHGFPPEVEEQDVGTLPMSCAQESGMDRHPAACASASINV
Method: Ornithine decarboxylase (ODC) is prepared from the livers of rats which have been injected with thioacetamide (150 mg/kg of body weight) 18 hrs before sacrifice, and is purified about ten fold by acid treatment at pH 4.6 as described by Ono et al. (Biochem. Biophys. Acta 284, 285 (1972)). The stock solution of ODC is comprised of protein (16 mg/mL), sodium phosphate buffer (30 mM, pH 7.1), dithiothreitol (5 mM) and pyridoxal phosphate (0.1 mM). The specific activity of this stock solution is 0.12 nmol of CO2 /min per mg of protein. For a typical experiment 320 μl of this stock solution are mixed at time 0 with 80 μl of a solution of the inhibitor in water and incubated at 37°. At different times 50 μl aliquots are transferred into a 1-mL assay medium containing sodium phosphate (30 mM, pH 7.1), dithiothreitol (5 mM), pyridoxal phosphate (0.1 mM), L-ornithine ([…]), and DL-[1-^14 C] ornithine ([…], 58 Ci/mol, Amersham) in a closed vessel in which a filter paper moistered with 50 μl hyamine hydroxide (1 M) is fitted. The reaction is allowed to proceed for 60 min at 37° C. and then terminated by addition of 0.5 ml of 40% trichloroacetic acid. After an additional 30 min the CO2 absorbed on the filter paper is counted in a standard scintillation cocktail. KI (apparent dissociation constant) and .tau.50 (half-life, at infinite concentration of inhibitor are calculated according to the method of Kitz and Wilson (J. Biol. Chem., 237, 3245 (1962)).
When tested according to the above-described procedure, representative compounds of Formula I gave the results shown in Table III below. The same abbreviations are used as in Table II and DFMDP is α-difluoromethyl-trans-β-dehydroputrescine.

[3] = Contragestational activity in mice (method of J. Fozard); format: in vivo; details: 80 mg/kg S.C. every six hours on the 8th day of gestation
Method: The compounds of Formula I wherein Rc is --COR3 are also capable of interrupting embryogenesis in female mammals when administered systematically. Thus, the compounds are useful as contragestational agents in female mammals when it is desired to terminate early pregnancy. […] In general, an effective daily dose of the compounds of Formula I, wherein Rc is --COR3, for terminating pregnancy in warm-blooded mammals is from 10 mg/kg to 1 g/kg, preferably 10 to 100 mg/kg, administered after fertilisation during the period between Standard Stages 8-16 of gestation as defined by E. Wischi (See Tables 26-27, pages 82-92, Biology Data Book, Altman and Dittmer, Editors, Published by the Federation of American Societies for Experimental Biology, Washington, D.C., 1964). The period of treatment will vary with the species. In humans, the period of treatment will extend from the 6th-7th day of gestation of the 27th day.

L 1210 leukemia = format: in vivo, mice
Method: (§1) When tested in mice against L 1210 leukemia and EMT6 solid tumors, -fluoromethyl-trans-dehydroputrescine (MFMDP) gave the following results:
When injected i.p. (twice a day from day 1) at a dose of 50 mg/kg it increased by 20% the mean survival time of the mice.

EMT6 solid tumors = assay: Anti-neoplastic effect in mice inoculated with EMT6 solid sarcoma; format: in vivo
From the text: as §1
2% MFMDP in water as sole drinking fluid starting 4 days after inoculation of the cells, inhibited by 60% to 70% the growth of the tumor at day 17. When given at 0.2% in water, it inhibited by 25% tumor growth.

ODC = ODC activity in the EMT6 tumor of treated mice; format: in vivo; details: all treatments (2% and 0.2% in water, 200 mg/kg i.p.)
[4] = Acute i.p. toxicity (LD50) in mice; details: mouse, in vivo, ip, acute i.p. injection
From the text: The LD50 is acute i.p. injection was between 1 and 3 g/kg in mice.

in vivo = format: in vivo, mice; details: 2% in drinking water or 200 mg/kg i.p. twice a day, after 10 days
Method: When given in drinking water (2%) or injected i.p. (200 mg/kg twice a day) MFMDP induced the following toxic effects observed after 10 days of treatment: […]

[5] = test system: carcinoma of the bladder, esophagus, lung, pancreas, colon, kidney, breast and prostate, oat cell carcinoma, adenocarcinoma, lymphoma, hepatoma, melanoma …; details: intravenously once or twice a week; 65 treated patients; cited from earlier work

## NC/C=C/C(N)(C(=O)O)C(F)F (centres unmarked) [DFMDO, 2-Difluoromethyl-2,5-diamino-3-(E)-penten-1-oic acid]
[1]; 50 mg/kg gavage
  ODC activity, ventral prostate: 119 % CONTROL
[2]
  Half-life (t1/2): 10.0 min
  τ50 (half-life, at infinite concentration of inhibitor): 2.5 min
  Ki: 30 µM

## NC/C=C/C(N)C(F)F (centres unmarked) [DFMDP, 2,2-Difluoro-2,5-diamino-3-(E)-pentene]
[2]
  Half-life (t1/2): 5 min
  τ50 (half-life, at infinite concentration of inhibitor): 0.7 min
  Ki: 60 µM

## NC/C=C/C(N)(CF)C(=O)O (centres unmarked) [MFMDO, 2-Fluoromethyl-2,5-diamino-3-(E)-penten-1-oic acid]
[1]; 50 mg/kg I.P.
  ODC activity, ventral prostate: 18 % CONTROL
[1]; 50 mg/kg gavage
  ODC activity, ventral prostate: 36 % CONTROL
[3]
  inhibition of gestation (number of viable feti per gravid female vs controls): inhibited gestation
[2]
  Half-life (t1/2): 3.1 min
  τ50 (half-life, at infinite concentration of inhibitor): 2.7 min
  Ki: 2.8 µM

## NC/C=C/C(N)CF (centres unmarked) [MFMDP, 1-Fluoro-2,5-diamino-3-(E)-pentene]
L 1210 leukemia; 50 mg/kg i.p. twice a day from day 1
  increase of mean survival time: 20%
L 1210 leukemia; 0.2% in water as sole drinking fluid from day 1 after inoculation
  prolongation of survival: did not prolong the survival of the mice
L 1210 leukemia; 200 mg/kg i.p.
  increased survival: no increased survival could be observed
L 1210 leukemia; 200 mg/kg i.p., L 1210 mice
  toxicity: toxic
EMT6 solid tumors; 0.2% in water
  inhibition of tumor growth: 25%
EMT6 solid tumors; 200 mg/kg i.p. twice a day starting 4 days after inoculation, day 13
  inhibition of tumor growth: 50%
ODC
  ODC activity in the tumor: markedly inhibited in all cases
[1]; 25 mg/kg I.P.
  ODC activity, thymus: 24 % CONTROL
[1]; 25 mg/kg gavage
  ODC activity, ventral prostate: 12 % CONTROL
[4]
  LD50: 1000 to 3000 mg/kg
In vivo
  decrease in body weight: 25%
  decrease in water intake: 30-40%
  drop in blood leukocytes: 50%
In vivo; mouse, in vivo, read-out: animals dead
  mortality at 240 h: 15%
[2]
  Half-life (t1/2): 0.9 min
  τ50 (half-life, at infinite concentration of inhibitor): 0.2 min
  Ki: 42 µM

## CC(C=NNC(=N)N)=NNC(=N)N [MGBG, methylglyoxal bis(guanylhydrazone)]
[5]
  complete disappearance of the disease: complete disappearance of the disease in two of the 65 treated patients
  regression of the tumor: measurable regression of the tumor in many of the patients treated

Source: patent US4439619A, “Fluorinated pentene diamine derivatives” (Merrell Toraude et Compagnie, priority 1980, dated 1984)
